Laboratory results: patent publication EP0117578A2, “Azole-substituted alcohol derivatives” (SHIONOGI & CO., LTD., priority 1983, dated 1984)
Converted amounts (≈) assume the structure as drawn. One block for each molecule: values may come before it.

Key:
Trichophyton asteroides = assay: in vitro antifungal test, minimum inhibitory concentration (MIC); assay type: cell-based; details: Sabouraud's dextrose broth
Text: Sabouraud's dextrose broth was used as a culture medium.

Candida albicans KE-2 [1] = assay: Inhibition test against the formation of the pseudohyphae of Candida albicans; assay type: cell-based; details: KE2; Candida albicans KE-2, 1 x 10^6 cells/ml; Eagle's MEM with 20 % bovine serum; 37°C, 18 hours; two-fold dilution; read-out: Inhibitory Concentration against Pseudohyphae Formation
Protocol: [Inhibition test against the formation of the pseudohyphae of Candida albicans] To an Eagle's MEM medium (Nissan 2; Nissui Pharmaceutical Co., Ltd.) was added 20 % bovine serum, onto which yeast cells of Candida albicans KE-2 were inoculated so that the terminal inoculum size would amount to 1 x 10^6 cells/ml. Then, a test compound was added to the medium by a two-fold dilution method, and cultivation was performed at 37°C for 18 hours. After termination of the cultivation, the cells of serial dilution on each medium were smeared and fixed on an object glass, then stained by the Giemsa's staining method, and the occurrence of the pseudohyphae was observed by microscopy. Minimum concentration for inhibiting the formation of the pseudohyphae was regarded as Inhibitory Concentration against Pseudohyphae Formation.

[2] = test system: cucurbit powdery mildew (Sphaerotheca fuliginea); assay: Control of powdery mildew in cucumber; assay type: in vivo; set-up: key: O: Disease sign was detected for nearly 100 % area in the inoculated leaf surface; 3: Disease sign was detected for about 50 % area; 5: Disease sign was detected for about 30 % area; 7: Disease sign was detected for about 20 % area; 9: Disease sign was slightly detected; 10: No disease sign was detected; details: degree of mildew infection 10 days after inoculation; for Soil application (10 ppm) Prevention: 10 ml at 10 ppm applied to the soil before inoculation; for Foliar spray (125 ppm) Supprension: sprayed at 125 ppm 2 days after inoculation; for Foliar spray (125 ppm) Prevention: sprayed at 125 ppm before inoculation
Protocol: Three ml of preparation containing a test compound at a concentration of 125 ppm was sprayed foliarly to the first leaf of young cucumber plant (cultivar: Matsukaze) which was grown in 9 cm pot in a glasshouse. Similar preparation in 10 ml with the test compound at a concentration of 10 ppm was applied directly to the soil in another pot with cucumber. These plants were inoculated subsequently with conidia suspension of cucurbit powdery mildew (Sphaerotheca fuliginea) and kept in a glasshouse at the temperature of 25 ± 2 °C. Yet in another experiment cucumber in pot was inoculated first with conidia of Sphaerotheca fuliginea and after 2 days the test compound was sprayed foliarly as above to examine its suppressive ability against development of the disease. For all these cucumber plants were observed 10 days after each inoculation and degrees of mildew infection were given as follows: • O : Disease sign was detected for nearly 100 % area in the inoculated leaf surface • 3 : Disease sign was detected for about 50 % area • 5 : Disease sign was detected for about 30 % area • 7 : Disease sign was detected for about 20 % area • 9 : Disease sign was slightly detected • 10: No disease sign was detected

[3] = test system: sheath blight fungus (Rhizoctonia solani); assay: Control of sheath blight in rice; assay type: in vivo; details: rice sprayed foliarly at 500 ppm, 5 days
Protocol: Rice (cultivar: Aichi-asahi) was grown in pots in a glasshouse for about 3 months and the plant in each pot was sprayed foliarly with 5 ml of preparation containing a test compound at a concentration of 500 ppm. Then the rice was inoculated at the stem near the soil with sheath blight fungus (Rhizoctonia solani) which was previously cultured in rice husks. The inoculated plant was placed in a humid (r.h. 97 %) chamber at 28°C for 5 days.

Candida albicans KE-2 [4] = assay: Therapeutic effect against experimental candidiasis in mice; assay type: in vivo; details: female Jcl-ICR mice infected intravenously; 50 mg/kg orally twice a day for 5 days; survival at the 15th day
Protocol: [Therapeutic effect against experimental candidiasis in mice] Candida albicans KE-2 was cultivated in a Sabouraud's dextrose agar at 28°C for 48 hours, and the resulting culture was suspended in the Sabouraud's dextrose broth. The cells (5 x 105) were administered intravenously at the tail of female Jcl-ICR mice (4 weeks age, body weight 18 - 20 g). The test compound suspended in 2 % gum-arabic was orally administered at a dose of 50 mg/kg twice a day for 5 days: on the first day, the test compound was administered twice i.e. immediately after the infection and 2 hours later; on the second day or later, 24 hours after the administration of the previous day respectively. An infected group to which no test compound was administered was regarded as a control group. Eight mice were employed per group in the control group and the test groups to which the test compound was administered. Therapeutic effect was evaluated on the survival rate at the 15th day since the day of infection; the result is shown below.

[5] = test system: dumping-off pathogen, Rhizoctonia solani; assay: Control of dumping-off in cucumber seedlings; assay type: in vivo; details: cucumber seeds, 14 days after sowing; for Disease degree (%): 30 ml at 500 ppm applied to the soil, 30 ± 2 °C; for Control (%): 500 ppm applied to the soil, calculated from disease degree
Protocol: Twenty seeds of cucumber (cultivar: Matsukaze) were sown in 150 g of sterilized soil in 9 cm pot. The soil surface was covered with 15 g of inoculum which contained a dumping-off pathogen, Rhizoctonia solani precultured in a mixture of wheat bran and sterilized soil. Then 30 ml of preparation with a test compound at a concentration of 500 ppm was applied to the soil and the pot was kept at 30 ± 2 °C in a humid chamber.

[6] = test system: cucumber downy mildew (Pseudoperonospora cubensis); assay: Control of cucumber downy mildew; assay type: in vivo; details: cucumber leaf sprayed at 125 ppm, 10 days
Protocol: The first leaf of young cucumber plant (cultivar : Matsukaze) grown in pot was sprayed with 3 ml of preparation containing a test compound at a concentration of 125 ppm. Five small droplets of suspension of sporangia of cucumber downy mildew (Pseudoperonospora cubensis) were applied to the leaf surface and the pot was kept at 22 ± 2°C under humid condition for 10 days. Then disease degree of downy mildew symptom developed was determined by the following method : [formula] • where, a : Number of inoculations showing typical disease symptom • b : Number of inoculations at which chlorosis was developed • c : Number of inoculations at which chlorosis was slightly developed • d : Number of inoculations at which no disease symptoms were developed Disease degree in Disease degree in [formula]

MIC (Trichophyton asteroides): 0.1 µg/mL (≈ 0.305 µM)
Structure (SMILES): CCCC(=O)C(O)(Cn1cncn1)c1ccc(Cl)cc1Cl (centres unmarked) [compound 25]
minimal effective concentration (Candida albicans KE-2 [1]): 0.04 µg/mL
Soil application (10 ppm) Prevention [2]: 10
Foliar spray (125 ppm) Supprension [2]: 10
Foliar spray (125 ppm) Prevention [2]: 10
Growth of mycelia (mm) ([3]; 28°C, r.h. 97 %): 20 mm
Suppression (%) ([3]; calculated from growth of mycelia): 90%

MIC (Trichophyton asteroides): 0.1 µg/mL (≈ 0.325 µM)
Structure (SMILES): CCC(C)C(=O)C(O)(Cn1cncn1)c1ccc(Cl)cc1 (centres unmarked) [compound 34]

MIC (Trichophyton asteroides): 1.6 µg/mL (≈ 5.41 µM)
Structure (SMILES): CCCC(O)C(O)(Cn1cncn1)c1ccc(Cl)cc1 (centres unmarked) [compound 80]

MIC (Trichophyton asteroides): 0.1 µg/mL (≈ 0.231 µM)
Structure (SMILES): OC(c1ccc(Cl)cc1Cl)C(O)(Cn1cncn1)c1ccc(Cl)cc1Cl (centres unmarked) [compound 63, 1,2-bis(2,4-dichlorophenyl)-3-(1H-1,2,4-triazol-1-yl)-propylene glyco]
minimal effective concentration (Candida albicans KE-2 [1]): 0.08 µg/mL
Survival Rate (Candida albicans KE-2 [4]): 75%

MIC (Trichophyton asteroides): 0.1 µg/mL (≈ 0.275 µM)
Structure (SMILES): OC(c1ccccc1Cl)C(O)(Cn1cncn1)c1ccccc1Cl (centres unmarked) [compound 69]
minimal effective concentration (Candida albicans KE-2 [1]): 0.08 µg/mL

Structure (SMILES): OC(c1ccc(Cl)cc1Cl)C(O)(Cn1cncn1)c1ccc(F)cc1 (centres unmarked) [compound 78]
minimal effective concentration (Candida albicans KE-2 [1]): 0.31 µg/mL

MIC (Trichophyton asteroides): 0.1 µg/mL (≈ 0.232 µM)
Structure (SMILES): O=C(c1ccc(Cl)cc1Cl)C(O)(Cn1cncn1)c1ccc(Cl)cc1Cl (centres unmarked) [compound 6]
minimal effective concentration (Candida albicans KE-2 [1]): 0.16 µg/mL

MIC (Trichophyton asteroides): 1.56 µg/mL (≈ 4.71 µM)
Structure (SMILES): OC(c1ccc(F)cc1)C(O)(Cn1cncn1)c1ccc(F)cc1 (centres unmarked) [compound 71]
Soil application (10 ppm) Prevention [2]: 10
Foliar spray (125 ppm) Supprension [2]: 10
Foliar spray (125 ppm) Prevention [2]: 10

Structure (SMILES): O=C(c1ccc(F)cc1)C(O)(Cn1cncn1)c1ccccc1Cl (centres unmarked) [compound 19]
Survival Rate (Candida albicans KE-2 [4]): 100%

MIC (Trichophyton asteroides): 0.1 µg/mL (≈ 0.276 µM)
Structure (SMILES): O=C(c1ccccc1Cl)C(O)(Cn1cncn1)c1ccccc1Cl (centres unmarked) [compound 10]
minimal effective concentration (Candida albicans KE-2 [1]): 0.08 µg/mL
Disease degree (%) [5]: 8%
Control (%) [5]: 92%

MIC (Trichophyton asteroides): 12.5 µg/mL (≈ 35.4 µM)
Structure (SMILES): COc1ccc(C(=O)C(O)(Cn2cncn2)c2ccc(OC)cc2)cc1 (centres unmarked) [compound 7]

MIC (Trichophyton asteroides): 3.13 µg/mL (≈ 8.64 µM)
Structure (SMILES): O=C(c1cccc(Cl)c1)C(O)(Cn1cncn1)c1cccc(Cl)c1 (centres unmarked) [compound 11]

Structure (SMILES): O=C(c1ccccc1F)C(O)(Cn1cncn1)c1ccc(Cl)cc1Cl (centres unmarked) [compound 46]
Survival Rate (Candida albicans KE-2 [4]): 87.5%
Soil application (10 ppm) Prevention [2]: 5 (Disease sign was detected for about 30 % area)
Foliar spray (125 ppm) Supprension [2]: 10
Foliar spray (125 ppm) Prevention [2]: 10
Disease degree (%) ([6]; 22 ± 2°C, humid): 20%
Control (%) ([6]; calculated from disease degree): 80%
Disease degree (%) [5]: 0%
Control (%) [5]: 100%

MIC (Trichophyton asteroides): 0.8 µg/mL (≈ 2.72 µM)
Structure (SMILES): CCCC(=O)C(O)(Cn1cncn1)c1ccccc1Cl (centres unmarked) [compound 32]
minimal effective concentration (Candida albicans KE-2 [1]): 0.04 µg/mL
Soil application (10 ppm) Prevention [2]: 10
Foliar spray (125 ppm) Supprension [2]: 10
Foliar spray (125 ppm) Prevention [2]: 10

MIC (Trichophyton asteroides): 0.1 µg/mL (≈ 0.232 µM)
Structure (SMILES): O=C(c1ccc(Cl)cc1Cl)C(O)(Cn1ccnc1)c1ccc(Cl)cc1Cl (centres unmarked) [Compound No. 1, 2',4'-dichloro-2-(2,4-dichlorophenyl)-2-hydroxy-3-(1H-imidazol-1-yl)propiophenone]
Foliar spray (125 ppm) Supprension [2]: 10
Foliar spray (125 ppm) Prevention [2]: 10

MIC (Trichophyton asteroides): 0.1 µg/mL (≈ 0.292 µM)
Structure (SMILES): CCCCC(=O)C(O)(Cn1cncn1)c1ccc(Cl)cc1Cl (centres unmarked) [compound 23]

MIC (Trichophyton asteroides): 0.1 µg/mL (≈ 0.262 µM)
Structure (SMILES): OC(c1ccc(F)cc1)C(O)(Cn1cncn1)c1ccc(Cl)cc1Cl (centres unmarked) [compound 67]
minimal effective concentration (Candida albicans KE-2 [1]): 0.08 µg/mL
Survival Rate (Candida albicans KE-2 [4]): 100%

Structure (SMILES): O=C(c1ccc(F)cc1)C(O)(Cn1cncn1)c1ccc(Cl)cc1Cl (centres unmarked) [compound 8]
minimal effective concentration (Candida albicans KE-2 [1]): 1.25 µg/mL
Disease degree (%) [5]: 5%
Control (%) [5]: 95%

Structure (SMILES): CCC(C)C(=O)C(O)(Cn1cncn1)c1ccc(Cl)cc1Cl (centres unmarked) [compound 28]
minimal effective concentration (Candida albicans KE-2 [1]): 0.02 µg/mL

MIC (Trichophyton asteroides): 1.56 µg/mL (≈ 4.85 µM)
Structure (SMILES): Cc1ccc(C(=O)C(O)(Cn2cncn2)c2ccc(C)cc2)cc1 (centres unmarked) [compound 9]
